Experimental data published in patent publication US10450258B2, “Substituted aromatic compounds for the treatment of pulmonary fibrosis, liver fibrosis, skin fibrosis and cardiac fibrosis” (PROMETIC PHARMA SMT LIMITED, priority 2013, dated 2019).
“Also recorded” adds a separate entry of the source.

Experiments:
[1] = system: CCl4-induced liver fibrosis mouse model; assay: CCl4-induced liver fibrosis mouse model; assay type: in vivo, mouse (male C57BL/6)
Text: Hepatic fibrosis is an outcome of many chronic liver diseases, including hepatitis B virus, hepatitis C virus, alcoholic liver disease, non-alcoholic steatohepatitis and diverse chronic intoxication. It was thus desired to evaluate the effect of Compound I on murine CCl4-induced liver fibrosis. Intoxication with CCl4 results in hepatocyte damage, necrosis, inflammation, and fibrosis, which spreads to link the vascular structures that feed into and drain the hepatic sinusoid (the portal tract and central vein radical, respectively), and over 8-30 weeks results in the development of fibrosis to hepatocellular carcinoma. Therefore, evaluation of candidate antifibrotic drugs such as Compound I can be undertaken by treatment of the mice at appropriate time points and histologic, biochemical and cellular readouts may be used to monitor candidate drug efficacy in this model.
CCl4 (10% in corn oil, 2 ml/kg) was intraperitoneally injected twice a week for 16 weeks in male C57BL/6. Compound I (200 mg/kg) was orally administered every day from day 1 to day 113. Mice were euthanasized and histology and liver fibrotic markers were analyzed.
To determine if Compound I has an effect on liver fibrosis, hydroxyproline level was used to measure the collagen content in the tissue, which is indicative of liver fibrosis.
The reduction of collagen level in liver tissue was also observed in histological micrographs using the Masson's Trichrome staining.
The Masson's trichrome stain the cytoplasm, keratin, muscle fibers and intracellular fibers in red colour; nuclei in black colour and collagen (fibrous tissue) in blue color.
Another experiment has been performed with Compound 1 and Compound V where CCL4 (10% in olive oil, 2 ml/kg) was intraperitoneally injected twice a week for 8 weeks in male C57BL/6. Compound 1 and compound V were orally administered (100 and 200 mg/kg) every day from day 1 to day 58. Mice were euthanasized and collagen content (marker of fibrosis) in the liver was quantified by histomorphometry using Masson's trichrome staining.

[2] = system: normal human dermal fibroblasts (NHDF); assay: Scratch assay (migration and invasion) of EGF-stimulated NHDF; assay type: cell-based; settings: mitomycin-treated NHDF, compound 0.5 mM, FIG. 26
Description: The next experiments (scratch assay, invasion/migration) were designed to determine the effect of Compound I on EGF-stimulated normal human dermal fibroblasts (NHDF). In summary, mitomycin-treated NHDF were stimulated with EGF and incubated in the presence or absence (control) of Compound I (0.5 mM). EGF stimulated fibroblast invasion into the scratch which is inhibited by Compound I (FIG. 26).

[3] = system: TGF-β, CTGF, IL-23p19, IL-6, collagen 1, fibronectin (FN-1), collagen 3 mRNA in lung tissue; assay: Real-time PCR of inflammatory and fibrotic marker mRNA in lung tissue, bleomycin-induced pulmonary fibrosis mouse model; assay type: in vivo, mouse (male C57BL6)
Description: Male C57BL6 mice are administered intratracheal instillation of bleomycin sulphate (0.025 U) at day 0, randomized and administered Compound I (oral administration, 100 mg/kg and 200 mg/kg) on day 7 to day 20.
Further analysis of the lung tissue was undertaken. CTGF, collagen 1 and IL-23p19 mRNA expression was quantified by real-time PCR.
It was therefore evaluated side-by-side with Compound I in the bleomycin-induced pulmonary fibrosis mouse model by the same protocol described in Example 4 above. Compound I (200 mg/kg) and pirfenidone (400 mg/kg) were orally administered either alone or in combination.
In order to determine the effect of Compound I on pulmonary fibrosis, further analysis of the lung tissue was undertaken. TGF-β, CTGF, IL-23 and IL-6 mRNA expression was quantified by real-time PCR. […] Oral administration of pirfenidone had no effect on CTGF mRNA expression but decreased TGF-β, IL-23 and IL-6 mRNA expression. […]

[4] = system: normal human dermal fibroblasts (NHDF); assay: TGF-β-induced and basal CTGF, collagen 1 and α-SMA transcript expression in NHDF (quantitative real-time PCR); assay type: cell-based
Description: The effect of Compound of the invention on skin fibrosis was studied using normal human dermal fibroblasts (NHDF).
In vitro analysis was undertaken to determine the effect of Compound I on TGF-β-induced CTGF, collagen 1 and α-SMA (markers of fibrosis) on normal human dermal fibroblasts (NHDF). Expression of the profibrotic (CTGF) and fibrotic markers (collagen 1 and α-SMA) were determined by quantitative real-time PCR.
Myofibroblasts are terminally differentiated cells derived from fibroblasts, epithelial and mesenchymal stem/stromal (fibrocytes) cells that play an important role in tissue fibrosis via increased matrix synthesis such as collagen. α-SMA is a well-known marker of myofibroblast.

CCCCCc1cccc(CC(=O)[O-])c1.[Na+] [Compound I, Sodium Salt of 3-pentylphenylacetic acid]
collagen score in liver (Masson's Trichrome staining) ([1]; CCl4 16 weeks, oral 200 mg/kg daily, FIG. 20): significant reduction | collagen deposition and bridging formation in liver (photomicrographs) ([1]; CCl4 16 weeks, oral 200 mg/kg daily, FIG. 21): significant reduction of collagen deposition and bridging formation | collagen content in liver (histomorphometry, Masson's trichrome) ([1]; CCl4 twice a week for 8 weeks, oral 100 and 200 mg/kg every day, day 1 to day 58, FIG. 22): significant reduction | hydroxyproline level in liver ([1]; CCl4 twice a week for 16 weeks, oral 200 mg/kg every day, day 1 to day 113, FIG. 19): significant reduction | EGF-stimulated fibroblast migration and invasion into the scratch [2]: reduction of the migration and invasion; also recorded: inhibited | CTGF mRNA expression in lungs ([3]; oral 100 and 200 mg/kg, Example 21, FIG. 4): significantly decreased the expression | IL-23p19 mRNA expression in lungs ([3]; oral 100 and 200 mg/kg, Example 21, FIG. 5): significantly decreased the expression | collagen 1 mRNA expression in lungs ([3]; oral 100 and 200 mg/kg, Example 21, FIG. 6): significantly decreased the expression | TGF-β mRNA expression in lungs ([3]; oral, Compound I 200 mg/kg, pirfenidone 400 mg/kg, alone or combined, FIG. 12): significantly decreased the expression | CTGF mRNA expression in lungs ([3]; oral, Compound I 200 mg/kg, pirfenidone 400 mg/kg, alone or combined, FIG. 13): significantly decreased the expression | IL-23 mRNA expression in lungs ([3]; oral, Compound I 200 mg/kg, pirfenidone 400 mg/kg, alone or combined, FIG. 14): significantly decreased the expression | IL-6 mRNA expression in lungs ([3]; oral, Compound I 200 mg/kg, pirfenidone 400 mg/kg, alone or combined, FIG. 15): significantly decreased the expression | collagen 3 mRNA expression in lungs ([3]; oral, Compound I 200 mg/kg, pirfenidone 400 mg/kg, alone or combined, FIG. 18): weak reduction | collagen 1 mRNA expression in lungs ([3]; oral, Compound I 200 mg/kg, pirfenidone 400 mg/kg, alone or combined, reduction to the control level, FIG. 16): significant reduction | fibronectin (FN-1) mRNA expression in lungs ([3]; oral, Compound I 200 mg/kg, pirfenidone 400 mg/kg, alone or combined, reduction to the control level, FIG. 17): significant reduction | TGF-β-induced CTGF transcript expression ([4]; TGF-β 5 ng/ml, compound 500 μM, FIG. 23): inhibited | TGF-β-induced collagen 1 transcript expression ([4]; TGF-β 5 ng/ml, compound 500 μM, FIG. 24): inhibited | TGF-β-induced α-SMA transcript expression ([4]; TGF-β 5 ng/ml, compound 500 μM, FIG. 25): inhibited | inhibition of α-SMA in TGF-β induced fibroblasts ([4]; TGF-β induced): 90% | basal expression of CTGF ([4]; compound alone (0.5 mM), no TGF-β, FIG. 23): decreased basal expression | basal expression of collagen 1 ([4]; compound alone (0.5 mM), no TGF-β, FIG. 24): decreased basal expression | basal expression of α-SMA ([4]; compound alone (0.5 mM), no TGF-β, FIG. 25): decreased basal expression
